Assay results: US7973075B2, “Kainate receptor-selective epimeric analogs of dysiherbaine” (priority 2007, dated 2011)
Entries after “also recorded” stand apart in the source; their conditions may differ.

Experiments:
[1] = molecular target: T1, GluR4(i) AMPA receptors (Rattus norvegicus, UniProt P19493); test: Whole-cell patch clamp recordings, transfected HEK-293-T/17 cells, Example 2; type: cell-based; conditions: 300 μM analog
T1 construct: expressed in transfected cells; host or cells: HEK-293-T/17
T1 sequence (P19493 22-902 isoform P19493-2 limits assumed): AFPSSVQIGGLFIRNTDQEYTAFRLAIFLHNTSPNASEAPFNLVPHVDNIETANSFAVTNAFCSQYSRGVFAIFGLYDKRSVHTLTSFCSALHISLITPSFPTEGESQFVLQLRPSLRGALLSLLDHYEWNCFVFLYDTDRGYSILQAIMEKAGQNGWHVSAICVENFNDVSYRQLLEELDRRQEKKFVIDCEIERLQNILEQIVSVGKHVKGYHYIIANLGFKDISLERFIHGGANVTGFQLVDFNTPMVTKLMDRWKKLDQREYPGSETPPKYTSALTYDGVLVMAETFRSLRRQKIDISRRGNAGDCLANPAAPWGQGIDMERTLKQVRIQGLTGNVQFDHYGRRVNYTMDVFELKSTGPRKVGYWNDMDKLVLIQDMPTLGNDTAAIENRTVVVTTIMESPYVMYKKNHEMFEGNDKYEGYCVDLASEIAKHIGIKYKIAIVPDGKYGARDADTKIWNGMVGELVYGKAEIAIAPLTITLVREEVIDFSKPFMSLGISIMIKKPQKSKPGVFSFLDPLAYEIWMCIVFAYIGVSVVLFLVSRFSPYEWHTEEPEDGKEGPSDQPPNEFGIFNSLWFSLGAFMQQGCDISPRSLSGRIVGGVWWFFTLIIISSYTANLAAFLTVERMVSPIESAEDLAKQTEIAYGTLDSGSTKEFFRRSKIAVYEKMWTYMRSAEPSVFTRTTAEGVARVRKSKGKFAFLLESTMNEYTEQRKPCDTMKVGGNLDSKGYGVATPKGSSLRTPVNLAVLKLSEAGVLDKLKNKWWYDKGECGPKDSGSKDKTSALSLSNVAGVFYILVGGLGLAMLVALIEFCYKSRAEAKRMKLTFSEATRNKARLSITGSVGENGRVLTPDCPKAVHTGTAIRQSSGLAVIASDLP
Experimental: (§1) Cell Culture and Electrophysiology. HEK-293-T/17 cells were maintained in Dulbecco's modified Eagle's medium (DMEM) supplemented with 100 μg/mL penicillin, 100 μg/mL streptomycin, and 10% heat inactivated fetal bovine serum. One day before transfection, HEK-T/17 cells were plated at low density on glass coverslips coated with 100 μg/ml poly-D-lysine and 100 μg/ml collagen. Cells were transfected with receptor cDNAs ([…]) in combination with enhanced green fluorescent protein (eGFP) cDNA for visualization of transfected cells. Transfections were carried out with Fugene6 (Roche Applied Science) according to the manufacturer's protocol and used 2-3 days following transfection. Internal solution consisted of 110 mM CsF, 30 mM CsCl, 4 mM NaCl, 0.5 mM CaCl2, 10 mM HEPES, and 5 mM EGTA, and was adjusted to pH=7.3 with CsOH. The external solution contained 150 mM NaCl, 2.8 mM KCI, 2 mM CaCl2, 1 mM MgCl2, and 10 mM HEPES, adjusted to pH=7.3 with NaOH. Patch electrodes from thick-walled borosilicate glass (Warner Instruments, Hamden, Conn.) were pulled to a final resistance of 1.5 to 2.5 MO after fire polishing. […] To determine the pre-desensitization IC50 of selected analogs, several control glutamate (10 mM) applications were followed by a 2.5 minute application of various concentrations of 8-deoxy-neoDH, 9-deoxy-neoDH, or MSVIII-19, after which the analogs were co-applied with glutamate. A similar protocol was followed to measure the recovery of glutamate-evoked currents, with the exception that the analogs were not co-applied with glutamate. Whole cell patch clamp recordings were carried out using an Axopatch 200B amplifier (Axon Instruments). Data were analyzed with Origin 7.5 (OriginLab Corp.), and Prism4 (GraphPad Software Inc.); inhibition-response curves were plotted and fit with a one-site competition curve constrained to fixed minima (0) and maxima (100).
(§2) The pharmacological activities of the C2/C4 epimers were determined in patch-clamp assays with GluR5-2a or GluR6a KARs as well as GluR4(i) AMPA receptors.
(§3) 30 μM 2,4-epi-neoDH reduced glutamate-induced currents from GluR5-2a receptors by −70% while the same concentration reduced glutamate-induced currents from GluR6a receptors by −30% (FIG. 13A). […] We noted that the data derived from recording of the GluR5-2a receptor was poorly fit by the single component logistic curve, particularly at the lower concentrations. This inconsistency may arise from inter-subunit or inter-dimer cooperativity in the inhibitory activity or may be an apparent artifact resulting from run-down of the GluR5-2a receptor currents.

[2] = molecular target: T2, GluR6a (Rattus norvegicus, UniProt P42260); test: as above; type: cell-based; conditions: for agonist activity: analog-evoked currents from GluR6a receptors (words): 1 s test application of the analog at a high concentration (50-100 μM)
T2 construct: expressed in transfected cells; host or cells: HEK-293-T/17
T2 sequence (P42260 32-908): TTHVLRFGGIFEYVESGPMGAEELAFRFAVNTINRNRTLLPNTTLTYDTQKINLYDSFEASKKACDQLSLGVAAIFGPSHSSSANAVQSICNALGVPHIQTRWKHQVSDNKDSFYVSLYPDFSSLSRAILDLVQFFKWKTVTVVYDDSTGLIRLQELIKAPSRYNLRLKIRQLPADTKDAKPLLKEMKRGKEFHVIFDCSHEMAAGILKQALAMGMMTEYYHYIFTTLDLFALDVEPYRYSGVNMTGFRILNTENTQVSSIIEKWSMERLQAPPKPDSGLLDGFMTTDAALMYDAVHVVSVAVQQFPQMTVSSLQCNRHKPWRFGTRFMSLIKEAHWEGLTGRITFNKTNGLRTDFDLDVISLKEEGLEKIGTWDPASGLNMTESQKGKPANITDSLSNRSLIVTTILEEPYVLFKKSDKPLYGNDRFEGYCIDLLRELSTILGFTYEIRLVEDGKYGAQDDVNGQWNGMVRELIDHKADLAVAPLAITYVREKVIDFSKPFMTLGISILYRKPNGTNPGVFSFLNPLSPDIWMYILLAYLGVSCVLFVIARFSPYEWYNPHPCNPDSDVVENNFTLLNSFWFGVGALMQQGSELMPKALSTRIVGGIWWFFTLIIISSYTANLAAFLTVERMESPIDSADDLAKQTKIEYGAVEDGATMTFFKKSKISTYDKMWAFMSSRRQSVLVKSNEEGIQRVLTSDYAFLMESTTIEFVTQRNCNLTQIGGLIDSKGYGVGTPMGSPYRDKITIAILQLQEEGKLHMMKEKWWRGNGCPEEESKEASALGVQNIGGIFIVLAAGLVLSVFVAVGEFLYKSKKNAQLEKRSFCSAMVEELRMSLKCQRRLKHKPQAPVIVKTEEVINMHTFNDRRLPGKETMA
Experimental: as §1, §2, §3

[3] = molecular target: T3, GluR5-2a (Rattus norvegicus, UniProt P22756, DEL402-416); conditions: Sanders et al., 2005; read-out: IC50 for inhibition of glutamate-evoked currents, GluR5-2a receptors; cited from earlier work
T3 construct: expressed in transfected cells; host or cells: HEK-293-T/17
T3 sequence (P22756 with tags, fused parts or gaps isoform P22756-2 limits assumed, stated change not applied): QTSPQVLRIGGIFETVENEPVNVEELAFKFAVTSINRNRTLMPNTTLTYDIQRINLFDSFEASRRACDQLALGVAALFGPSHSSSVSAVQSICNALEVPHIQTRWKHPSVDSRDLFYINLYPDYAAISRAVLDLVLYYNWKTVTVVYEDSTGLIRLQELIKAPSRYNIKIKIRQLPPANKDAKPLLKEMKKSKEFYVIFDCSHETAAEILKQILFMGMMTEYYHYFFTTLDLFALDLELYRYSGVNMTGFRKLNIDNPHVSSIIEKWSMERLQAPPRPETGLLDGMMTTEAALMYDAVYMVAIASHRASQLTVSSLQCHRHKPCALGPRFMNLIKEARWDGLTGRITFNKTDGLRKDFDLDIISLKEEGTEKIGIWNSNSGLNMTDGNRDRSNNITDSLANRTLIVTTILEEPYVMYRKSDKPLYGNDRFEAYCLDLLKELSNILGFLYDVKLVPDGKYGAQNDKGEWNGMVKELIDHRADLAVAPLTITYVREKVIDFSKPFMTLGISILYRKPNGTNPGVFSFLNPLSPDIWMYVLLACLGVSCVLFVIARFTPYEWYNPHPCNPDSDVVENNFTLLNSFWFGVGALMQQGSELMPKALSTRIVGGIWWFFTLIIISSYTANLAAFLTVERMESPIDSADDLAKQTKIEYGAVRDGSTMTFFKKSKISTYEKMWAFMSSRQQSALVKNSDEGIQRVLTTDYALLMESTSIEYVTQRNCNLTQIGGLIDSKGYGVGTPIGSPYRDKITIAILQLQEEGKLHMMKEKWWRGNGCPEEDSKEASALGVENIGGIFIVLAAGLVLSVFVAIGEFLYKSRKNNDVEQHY

[4] = molecular target: T4, KA2 (Rattus norvegicus, UniProt Q63273); conditions: Sanders et al., 2005; cited from earlier work
T4 construct: expressed in transfected cells; host or cells: HEK-293-T/17
T4 sequence (Q63273 15-979): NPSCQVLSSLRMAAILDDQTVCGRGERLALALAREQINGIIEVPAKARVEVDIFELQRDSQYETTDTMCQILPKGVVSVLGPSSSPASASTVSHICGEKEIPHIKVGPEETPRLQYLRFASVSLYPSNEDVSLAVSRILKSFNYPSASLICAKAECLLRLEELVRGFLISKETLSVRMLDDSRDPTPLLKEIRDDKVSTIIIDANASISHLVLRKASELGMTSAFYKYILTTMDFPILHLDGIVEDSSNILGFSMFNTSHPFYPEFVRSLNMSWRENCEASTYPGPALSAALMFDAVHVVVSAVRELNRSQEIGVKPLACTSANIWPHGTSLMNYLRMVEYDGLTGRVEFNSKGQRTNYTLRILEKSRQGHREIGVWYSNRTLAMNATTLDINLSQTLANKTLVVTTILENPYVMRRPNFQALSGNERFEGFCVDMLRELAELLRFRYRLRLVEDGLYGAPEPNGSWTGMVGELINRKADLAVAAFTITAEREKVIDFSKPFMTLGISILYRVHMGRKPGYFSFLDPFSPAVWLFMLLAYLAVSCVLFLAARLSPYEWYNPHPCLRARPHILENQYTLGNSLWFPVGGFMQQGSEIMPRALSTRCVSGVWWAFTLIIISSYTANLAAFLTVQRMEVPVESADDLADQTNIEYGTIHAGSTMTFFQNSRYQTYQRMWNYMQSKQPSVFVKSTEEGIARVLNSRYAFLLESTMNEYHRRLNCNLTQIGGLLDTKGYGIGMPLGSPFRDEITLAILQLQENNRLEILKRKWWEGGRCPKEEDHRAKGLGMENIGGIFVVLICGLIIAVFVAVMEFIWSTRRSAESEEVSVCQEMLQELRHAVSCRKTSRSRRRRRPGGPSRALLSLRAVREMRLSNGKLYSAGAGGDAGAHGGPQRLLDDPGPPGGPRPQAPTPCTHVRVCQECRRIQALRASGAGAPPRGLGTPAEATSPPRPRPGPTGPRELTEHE

[5] = molecular target: T5, GluR2 (Rattus norvegicus, UniProt P19491); conditions: Table 1; comparison value of MSVIII-19 (Sanders et al., 2005); read-out: GluR2 binding affinity (displacement of [3H]AMPA); cited from earlier work
T5 construct: expressed in transfected cells; host or cells: COS-7 or HEK-T/17
T5 sequence (P19491 22-883 isoform P19491-2 limits assumed): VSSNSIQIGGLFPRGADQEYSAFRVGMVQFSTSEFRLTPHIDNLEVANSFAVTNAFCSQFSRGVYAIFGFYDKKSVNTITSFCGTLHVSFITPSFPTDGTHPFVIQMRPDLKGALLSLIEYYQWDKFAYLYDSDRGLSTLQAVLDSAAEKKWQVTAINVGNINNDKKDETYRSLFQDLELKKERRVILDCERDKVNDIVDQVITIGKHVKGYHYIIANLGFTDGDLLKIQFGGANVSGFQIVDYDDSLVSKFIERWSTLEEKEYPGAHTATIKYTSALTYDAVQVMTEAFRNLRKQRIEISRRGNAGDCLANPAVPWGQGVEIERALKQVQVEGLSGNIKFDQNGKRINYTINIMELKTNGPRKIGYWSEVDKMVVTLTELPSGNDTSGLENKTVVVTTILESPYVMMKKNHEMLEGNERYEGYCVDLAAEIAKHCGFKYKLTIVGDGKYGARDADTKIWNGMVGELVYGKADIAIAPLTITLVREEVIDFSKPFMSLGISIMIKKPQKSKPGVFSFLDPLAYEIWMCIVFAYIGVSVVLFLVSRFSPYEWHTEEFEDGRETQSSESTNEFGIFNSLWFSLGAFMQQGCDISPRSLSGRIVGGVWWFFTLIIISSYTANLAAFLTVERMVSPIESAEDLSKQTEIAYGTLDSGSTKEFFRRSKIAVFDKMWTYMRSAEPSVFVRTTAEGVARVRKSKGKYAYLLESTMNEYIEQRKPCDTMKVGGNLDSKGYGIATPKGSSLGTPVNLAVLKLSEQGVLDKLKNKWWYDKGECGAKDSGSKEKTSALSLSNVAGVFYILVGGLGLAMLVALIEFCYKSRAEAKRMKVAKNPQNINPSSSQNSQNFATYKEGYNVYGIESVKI

[6] = molecular target: T6, GluR1(i) (Rattus norvegicus, UniProt P19490); conditions: Sanders et al., 2005; cited from earlier work
T6 construct: expressed in transfected cells; host or cells: HEK-293-T/17
T6 sequence (P19490 19-907 isoform P19490-2 limits assumed): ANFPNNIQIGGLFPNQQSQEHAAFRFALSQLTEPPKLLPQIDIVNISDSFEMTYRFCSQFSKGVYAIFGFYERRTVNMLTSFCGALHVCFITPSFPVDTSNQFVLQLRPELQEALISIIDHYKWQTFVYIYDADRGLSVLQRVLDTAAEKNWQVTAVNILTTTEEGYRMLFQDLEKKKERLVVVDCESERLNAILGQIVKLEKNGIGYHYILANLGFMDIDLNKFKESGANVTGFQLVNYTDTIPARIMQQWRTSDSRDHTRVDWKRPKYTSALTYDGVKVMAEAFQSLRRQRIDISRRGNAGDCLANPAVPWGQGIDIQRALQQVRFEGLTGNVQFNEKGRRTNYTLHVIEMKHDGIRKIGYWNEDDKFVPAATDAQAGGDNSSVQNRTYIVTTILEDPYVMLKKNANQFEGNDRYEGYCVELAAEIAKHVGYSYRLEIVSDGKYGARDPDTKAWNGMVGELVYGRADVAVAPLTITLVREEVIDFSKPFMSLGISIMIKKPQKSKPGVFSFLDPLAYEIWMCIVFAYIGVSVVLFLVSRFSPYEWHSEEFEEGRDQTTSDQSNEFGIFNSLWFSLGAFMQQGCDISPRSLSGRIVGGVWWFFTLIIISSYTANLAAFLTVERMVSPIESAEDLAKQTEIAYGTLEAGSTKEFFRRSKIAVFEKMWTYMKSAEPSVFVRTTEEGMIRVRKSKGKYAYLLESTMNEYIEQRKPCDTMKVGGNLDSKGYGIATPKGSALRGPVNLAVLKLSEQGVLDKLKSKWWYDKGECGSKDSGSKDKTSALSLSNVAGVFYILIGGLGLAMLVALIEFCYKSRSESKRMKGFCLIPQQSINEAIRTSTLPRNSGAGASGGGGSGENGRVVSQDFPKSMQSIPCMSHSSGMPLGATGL

[7] = molecular target: T2, GluR6a; conditions: Sanders et al., 2005; cited from earlier work
[8] = molecular target: T7, GluR5 (Rattus norvegicus, UniProt P22756); conditions: Tables 1-2; comparison values of neoDH and MSVIII-19 (Sanders et al., 2005); read-out: GluR5 binding affinity (displacement of [3H]kainate); cited from earlier work
T7 construct: expressed in transfected cells; HEK 293 (patch clamp)
T7 sequence (P22756 with tags, fused parts or gaps isoform P22756-2): as the sequence (P22756 with tags, fused parts or gaps isoform P22756-2 limits assumed, stated change not applied) above

[9] = molecular target: T4, KA2; conditions: Tables 1-2; comparison values of neoDH and MSVIII-19 (Sanders et al., 2005); cited from earlier work

SMILES	inhibition of currents from GluR4(i) receptors [1]	recovery of glutamate-evoked currents after analog application, GluR6a ([2]; 30 μM analog)	reduction of glutamate-induced currents from GluR6a receptors ([2]; 30 μM analog) [%]	IC50 ([2]; 10 mM glutamate in continued presence of analog, read-out: IC50 inhibition of glutamate-evoked currents, GluR6a) [µM]	agonist activity: analog-evoked currents from GluR6a receptors (words) [2]	agonist activity: analog-evoked currents from GluR6a receptors (words) ([2]; listed as 2,4-epineoDH)	IC50 [3] [µM]	Ki KA2 [4] [µM]	Ki [5] [µM]	Ki [6] [µM]	Ki [7] [µM]	Ki [8] [µM]	KA2 binding affinity (displacement of [3H]kainate) [9] [µM]
N[C@@H](C[C@@]1(C(=O)O)CC2OCC(O)C(O)C2O1)C(=O)O (single isomer, unassigned) [2,4-epi-neoDH, 2,4-epi-neodysiherbaine]	failed to inhibit	current amplitudes recovered more slowly	~30	74	failed to elicit detectable current; also recorded: antagonist (or possibly a very weak partial agonist); also recorded: fails to activate GluR5 or GluR6 receptors, even at 100 μM	fails to activate							
N[C@@H](C[C@@]1(C(=O)O)CC2OCC(O)C(O)C2O1)C(=O)O (single isomer, unassigned) [4-epi-neoDH, 4-epi-neodysiherbaine]		only exhibited a transient desensitization			evoked small but detectable currents; also recorded: elicits large currents; also recorded: activates								
N[C@@H](C[C@]1(C(=O)O)C[C@H]2OCCC[C@H]2O1)C(=O)O [MSVIII-19, 8,9-dideoxy-neoDH]							0.023	>100	> 100	> 100	> 100	0.128	>100
